Laboratory results as given in patent publication US20260226049A1, “NITROGEN-CONTAINING HETEROCYCLIC COMPOUND, PREPARATION METHOD THEREFOR, AND USE THEREOF” (BIVISION PHARMACEUTICALS, INC, priority 2023, published 2026).

Tested on: HT1080 cell line with high FAP expression
Assay: ^68Ga labeling and animal imaging assay (PET/CT) in tumor-bearing mice
Assay type: in vivo
Set-up: Imaging data, Muscle / Imaging data, Bone / Imaging data, Bladder / Imaging data, Tumor / Imaging data, Intestine / Imaging data, Brain / Imaging data, Heart / Imaging data, Liver / Imaging data, Lung / Imaging data, Kidney: unit not given here
Details: for uptake in the tumor at 3 hours: 3 hours after injection
Method: A. 1.0 mg of JHH7 precursor was weighed and dissolved in 0.1 M sodium acetate buffer to prepare a 1.0 mg/mL precursor solution.
B. The Ge/Ga generator was eluted stepwise with 5 mL of 0.1 M HCl, and the highest activity fraction (0.5 mL) was collected. 0.5 mL of metal-free 0.1 M sodium acetate buffer (pH=4.5) was added. In a 1.5 mL centrifuge tube as the reaction tube, a specific amount of precursor [1000 (molecular weight)/14.94 μL (precursor solution)/mCi (radionuclide)] was added, vortex-mixed for 10 s, and heated at 95° C., 800 rpm for 15 min.
C. The C18 Sep-Pak was activated with anhydrous ethanol, rinsed thoroughly with pure water, and the excess water was removed.
D. The solution after the reaction was passed through the C18 Sep-Pak, rinsed with pure water, and the excess water was removed. Subsequently, the C18 Sep-Pak was eluted with ethanol, collecting approximately 10 tubes with 3 drops per tube.
E. The final preparation should be a clear solution, prepared fresh for immediate use and limited to the same day.
1) The PET/CT was powered on according to the standard operating procedures, the scanning software was launched, and daily calibration was performed.
2) Animal anesthesia preparation was conducted, where tumor-bearing mice (supplied by Shanghai Alamo Pharmaceutical Technology Co., Ltd., HT1080 cell line with high FAP expression) were anesthetized using isoflurane.
3) After the loss of righting reflex in the tumor-bearing mice, the imaging agent was injected via the tail vein.
4) After drug administration, dynamic scanning at 1 hour and static scanning was performed at 3 hours were performed for 10 minutes.
5) During the process, animal body weight, injection dose, injection time, and residual dose were recorded according to the record sheet, and the time of measuring the injection dose and the time of measuring the residual dose were separately recorded.
6) The uptake in animal tumors, muscles, and other organs was analyzed using PMOD software.
^68Ga-labeled compounds JHH7 and JHH11 were imaged in tumor-bearing mice, and the results are shown in FIG. 5 and FIG. 6, with the imaging data shown in Tables 4 and 5.

[1] = tumor-bearing mice, intravenous injection

N#C[C@@H]1CC(F)(F)CN1C(=O)CNC(=O)c1ccc2c(c1)CN(C(=O)CCC(=O)NCCNC(=O)CCC(C(=O)O)N1CCN(CC(=O)[O-])CCN(CC(=O)[O-])CCN(CC(=O)[O-])CC1)C2.[68Ga+3] (stereo partly drawn) [^68Ga-JHH7]
Imaging data, Bladder (5 min): 3.02
Imaging data, Bone (5 min): 0.17
Imaging data, Brain (5 min): 0.90
Imaging data, Heart (5 min): 4.61
Imaging data, Intestine (5 min): 0.47
Imaging data, Kidney (5 min): 6.73
Imaging data, Liver (5 min): 1.71
Imaging data, Lung (5 min): 1.78
Imaging data, Muscle (5 min): 0.81
Imaging data, Tumor (5 min): 0.91
Imaging data, Bladder (10 min): 49.75
Imaging data, Bone (10 min): 0.28
Imaging data, Brain (10 min): 0.82
Imaging data, Heart (10 min): 2.19
Imaging data, Intestine (10 min): 0.21
Imaging data, Kidney (10 min): 5.59
Imaging data, Liver (10 min): 0.88
Imaging data, Lung (10 min): 0.94
Imaging data, Muscle (10 min): 1.56
Imaging data, Tumor (10 min): 2.47
Imaging data, Bladder (15 min): 84.10
Imaging data, Bone (15 min): 0.30
Imaging data, Brain (15 min): 0.59
Imaging data, Heart (15 min): 1.43
Imaging data, Intestine (15 min): 0.23
Imaging data, Kidney (15 min): 3.87
Imaging data, Liver (15 min): 0.50
Imaging data, Lung (15 min): 0.79
Imaging data, Muscle (15 min): 1.42
Imaging data, Tumor (15 min): 3.36
Imaging data, Bladder (20 min): 109.69
Imaging data, Bone (20 min): 0.18
Imaging data, Brain (20 min): 0.55
Imaging data, Heart (20 min): 1.01
Imaging data, Intestine (20 min): 0.22
Imaging data, Kidney (20 min): 3.35
Imaging data, Liver (20 min): 0.38
Imaging data, Lung (20 min): 0.45
Imaging data, Muscle (20 min): 1.30
Imaging data, Tumor (20 min): 3.88
Imaging data, Bladder (25 min): 145.55
Imaging data, Bone (25 min): 0.17
Imaging data, Brain (25 min): 0.48
Imaging data, Heart (25 min): 0.94
Imaging data, Intestine (25 min): 0.15
Imaging data, Kidney (25 min): 2.74
Imaging data, Liver (25 min): 0.23
Imaging data, Lung (25 min): 0.28
Imaging data, Muscle (25 min): 1.29
Imaging data, Tumor (25 min): 4.70
Imaging data, Bladder (30 min): 157.22
Imaging data, Bone (30 min): 0.10
Imaging data, Brain (30 min): 0.46
Imaging data, Heart (30 min): 0.72
Imaging data, Intestine (30 min): 0.16
Imaging data, Kidney (30 min): 2.88
Imaging data, Liver (30 min): 0.25
Imaging data, Lung (30 min): 0.37
Imaging data, Muscle (30 min): 0.97
Imaging data, Tumor (30 min): 5.00
Imaging data, Bladder (1.5 h): 89.40
Imaging data, Bone (1.5 h): 0.53
Imaging data, Brain (1.5 h): 0.23
Imaging data, Heart (1.5 h): 0.45
Imaging data, Intestine (1.5 h): 0.92
Imaging data, Kidney (1.5 h): 0.71
Imaging data, Liver (1.5 h): 0.52
Imaging data, Lung (1.5 h): 0.54
Imaging data, Muscle (1.5 h): 0.17
Imaging data, Tumor (1.5 h): 6.40
Imaging data, Bladder (3 h): 7.50
Imaging data, Bone (3 h): 0.14
Imaging data, Brain (3 h): 0.12
Imaging data, Heart (3 h): 0.21
Imaging data, Intestine (3 h): 0.60
Imaging data, Kidney (3 h): 0.55
Imaging data, Liver (3 h): 0.43
Imaging data, Lung (3 h): 0.55
Imaging data, Muscle (3 h): 0.19
Imaging data, Tumor (3 h): 5.20
uptake in the tumor at 3 hours: a certain amount of uptake in the tumor was still observed
time of peak uptake in the tumor after injection [1]: 1.5 h

N#C[C@@H]1CC(F)(F)CN1C(=O)CNC(=O)c1cc2c(s1)CCN(C(=O)CCC(=O)NCCNC(=O)CCNC(=O)CN1CCN(CC(=O)O)CCN(CC(=O)O)CCN(CC(=O)O)CC1)C2 [^68Ga-JHH11, metal not drawn]
Imaging data, Bladder (5 min): 4.24
Imaging data, Bone (5 min): 0.92
Imaging data, Brain (5 min): 0.98
Imaging data, Heart (5 min): 8.61
Imaging data, Intestine (5 min): 1.96
Imaging data, Kidney (5 min): 13.43
Imaging data, Liver (5 min): 5.43
Imaging data, Lung (5 min): 3.12
Imaging data, Muscle (5 min): 0.82
Imaging data, Tumor (5 min): 1.06
Imaging data, Bladder (10 min): 17.03
Imaging data, Bone (10 min): 1.68
Imaging data, Brain (10 min): 0.66
Imaging data, Heart (10 min): 4.33
Imaging data, Intestine (10 min): 1.99
Imaging data, Kidney (10 min): 15.81
Imaging data, Liver (10 min): 3.56
Imaging data, Lung (10 min): 2.08
Imaging data, Muscle (10 min): 1.22
Imaging data, Tumor (10 min): 2.47
Imaging data, Bladder (15 min): 27.04
Imaging data, Bone (15 min): 1.17
Imaging data, Brain (15 min): 0.59
Imaging data, Heart (15 min): 3.22
Imaging data, Intestine (15 min): 1.66
Imaging data, Kidney (15 min): 20.15
Imaging data, Liver (15 min): 2.78
Imaging data, Lung (15 min): 1.97
Imaging data, Muscle (15 min): 1.16
Imaging data, Tumor (15 min): 3.26
Imaging data, Bladder (20 min): 45.38
Imaging data, Bone (20 min): 1.08
Imaging data, Brain (20 min): 0.55
Imaging data, Heart (20 min): 2.72
Imaging data, Intestine (20 min): 1.54
Imaging data, Kidney (20 min): 13.33
Imaging data, Liver (20 min): 2.44
Imaging data, Lung (20 min): 1.88
Imaging data, Muscle (20 min): 0.98
Imaging data, Tumor (20 min): 3.87
Imaging data, Bladder (25 min): 60.89
Imaging data, Bone (25 min): 1.22
Imaging data, Brain (25 min): 0.45
Imaging data, Heart (25 min): 2.29
Imaging data, Intestine (25 min): 1.30
Imaging data, Kidney (25 min): 8.42
Imaging data, Liver (25 min): 2.16
Imaging data, Lung (25 min): 1.47
Imaging data, Muscle (25 min): 0.75
Imaging data, Tumor (25 min): 4.30
Imaging data, Bladder (30 min): 73.70
Imaging data, Bone (30 min): 0.82
Imaging data, Brain (30 min): 0.41
Imaging data, Heart (30 min): 1.98
Imaging data, Intestine (30 min): 1.22
Imaging data, Kidney (30 min): 5.54
Imaging data, Liver (30 min): 2.05
Imaging data, Lung (30 min): 1.48
Imaging data, Muscle (30 min): 0.65
Imaging data, Tumor (30 min): 4.60
Imaging data, Bladder (1.5 h): 265.50
Imaging data, Bone (1.5 h): 0.50
Imaging data, Brain (1.5 h): 0.03
Imaging data, Heart (1.5 h): 0.20
Imaging data, Intestine (1.5 h): 0.62
Imaging data, Kidney (1.5 h): 1.00
Imaging data, Liver (1.5 h): 0.78
Imaging data, Lung (1.5 h): 0.58
Imaging data, Muscle (1.5 h): 0.37
Imaging data, Tumor (1.5 h): 4.40
Imaging data, Bladder (3 h): 4.50
Imaging data, Bone (3 h): 0.02
Imaging data, Brain (3 h): 0.04
Imaging data, Heart (3 h): 0.12
Imaging data, Intestine (3 h): 0.08
Imaging data, Kidney (3 h): 0.46
Imaging data, Liver (3 h): 0.82
Imaging data, Lung (3 h): 0.25
Imaging data, Muscle (3 h): 0.08
Imaging data, Tumor (3 h): 2.30
uptake in the tumor at 3 hours: tumor uptake was still observed
metabolism and excretion from the mice (after injection): rapidly metabolized and excreted from the mice
time of peak tumor uptake after injection [1]: 30 min
